From publication PMC6219514, “Structural basis of Gip1 for cytosolic sequestration of G protein in wide-range chemotaxis” (Nature Communications, 2018)

Molecular target: T1, GFP-Flag-tagged Gip1 (Gip1-GFPF) in complex with G proteins (Dictyostelium discoideum, UniProt Q55BQ2)
T1 construct: gene DDB_G0271086; full-length Gip1 (1-310) with GFP-Flag tag, expressed in Dictyostelium cells, on anti-Flag beads with co-purified G proteins; Gγ geranylgeranylated at Cys66
Assay: competitive dissociation of G proteins from bead-bound Gip1, immunoblot
Type: biochemical
Conditions: CHAPS buffer pH 7.5, 4 °C, 1 h, 3.5% methanol

T1 sequence (Q55BQ2 entry or part of it, one chain of several): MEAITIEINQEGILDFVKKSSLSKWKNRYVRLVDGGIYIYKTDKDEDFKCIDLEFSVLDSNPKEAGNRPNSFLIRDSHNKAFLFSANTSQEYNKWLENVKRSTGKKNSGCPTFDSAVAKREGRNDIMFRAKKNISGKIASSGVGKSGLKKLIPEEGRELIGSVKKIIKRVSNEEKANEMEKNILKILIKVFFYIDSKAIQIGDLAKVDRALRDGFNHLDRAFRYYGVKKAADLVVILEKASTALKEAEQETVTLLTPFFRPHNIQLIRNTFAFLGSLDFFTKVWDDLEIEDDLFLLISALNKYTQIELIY

Row | SMILES | relative band intensity (0-100 µM, competitive with geranylgeranylated Gγ) | relative band intensity (100 µM)
1 | CC(C)=CCC/C(C)=C/CC/C(C)=C/CC/C(C)=C/COP(=O)(O)OP(=O)(O)O [GG-pyroP, geranylgeranyl pyrophosphate] | the complex formation was competitively inhibited by the addition of geranylgeranyl pyrophosphate | –
2 | CC(C)=CCC/C(C)=C/CC/C(C)=C/COP(=O)(O)OP(=O)(O)O [farnesyl pyrophosphate] | – | Farnesyl pyrophosphate showed slight impairment of the Gip1–G protein complex
